Measured values reported in patent EP4104902B1, “COMPOUNDS AND M[…] SAME” (priority 2020, dated 2021).
Like-named read-outs stand apart in the source and are kept apart here.

Tests used:
[1] = tested on: recombinant rabies virus 1088 strain expressing Gaussia Luciferase (GLuc) (1088/GLuc); assay type: cell-based
[2] = tested on: mouse neuroblastoma cell strain Neuro-2A; experiment: Anti-cancer cell activity evaluation (minimum inhibitory concentration with respect to cells); assay type: cell-based; conditions: MIC, 3 days
rabies virus = conditions: mouse, in vivo; cited from earlier work
[3] = compounds of formula XXIIB and formula XXIIF
[4] = compounds of formula XXIIB and formula XXIIF (continuation)

CC(C)CN1CC2CC3CNC2(C(=O)NCc2cccc4ccccc24)C1C3CCc1ccccc1 (stereo not shown) [IB-958]
IC50 ([1]; read-out: Anti-rabies activity): < 5 µM | Anti-cancer cell activity ([2]; compounds of formula XXIB): b (b if greater than 10 µM and less than or equal to 20 µM)

CC(C)CN1CC2CC3CNC2(C(=O)NCCc2ccccc2)C1C3CCc1ccccc1 (stereo not shown) [IB-957]
IC50 ([1]; read-out: Anti-rabies activity): < 5 µM | Anti-cancer cell activity ([2]; compounds of formula XXIB): c (c if greater than 20 µM and less than or equal to 40 µM)

Cc1ccc(CNC(=O)[C@]23NC[C@@H]4C[C@H]2CN(CC(C)C)[C@H]3[C@@H]4CCc2ccccc2)cc1 (relative stereo) [IB-928]
IC50 ([1]; read-out: Anti-rabies activity): < 5 µM | Anti-cancer cell activity ([2]; compounds of formula XXIB): c (c if greater than 20 µM and less than or equal to 40 µM)

CC(C)CN1C[C@@H]2C[C@H]3CN[C@]2(C(=O)NCc2cccc(Cl)c2)[C@@H]1[C@@H]3CCCCc1ccccc1 (relative stereo) [IB-935]
IC50 ([1]; read-out: Anti-rabies activity): < 5 µM | Anti-cancer cell activity ([2]; compounds of formula XXIB): c (c if greater than 20 µM and less than or equal to 40 µM)

CC(C)CN1CC2CC3(C(=O)NCc4ccccc4)NCC2C1C3CCCCc1ccccc1 (stereo not shown) [IF-899]
IC50 ([1]; read-out: Anti-rabies activity): 5 to 10 µM | Anti-cancer cell activity ([2]; compounds of formula XXIF): c (c if greater than 20 µM and less than or equal to 40 µM)

COc1cccc(CNC(=O)[C@]23NC[C@@H]4C[C@H]2CN(CC(C)C)[C@H]3[C@@H]4CCCc2ccccc2)c1 (relative stereo) [IB-934]
IC50 ([1]; read-out: Anti-rabies activity): < 5 µM | Anti-cancer cell activity ([2]; compounds of formula XXIB): b (b if greater than 10 µM and less than or equal to 20 µM)

COc1ccc(CNC(=O)[C@]23NC[C@@H]4C[C@H]2CN(CC(C)C)[C@H]3[C@@H]4CCc2ccccc2)cc1 (relative stereo) [IB-927]
IC50 ([1]; read-out: Anti-rabies activity): < 5 µM | Anti-cancer cell activity ([2]; compounds of formula XXIB): c (c if greater than 20 µM and less than or equal to 40 µM)

CC(C)CN1C[C@@H]2C[C@H]3CN[C@]2(C(=O)NCc2cccc(Cl)c2)[C@@H]1[C@@H]3CCCc1ccccc1 (relative stereo) [IB-931]
IC50 ([1]; read-out: Anti-rabies activity): < 5 µM | Anti-cancer cell activity ([2]; compounds of formula XXIB): c (c if greater than 20 µM and less than or equal to 40 µM)

CC(C)CN1CC2CC3C=NC2(C(=O)NCc2cccc(Cl)c2)C1C3CCc1ccccc1 (stereo not shown) [IIB-332]
IC50 ([1]; read-out: Anti-rabies activity): < 5 µM | Anti-cancer cell activity [2, 3]: b (b if greater than 10 µM and less than or equal to 20 µM)

Cc1cccc(CNC(=O)C23N=CC4CC2CN(CC(C)C)C3C4CCCCc2ccccc2)c1 (stereo not shown) [IIB-344]
IC50 ([1]; read-out: Anti-rabies activity): < 5 µM | Anti-cancer cell activity [2, 3]: b (b if greater than 10 µM and less than or equal to 20 µM)

CC(C)CN1CC2CC3C=NC2(C(=O)NCc2ccccc2)C1C3CCCCc1ccccc1 (stereo not shown) [IIB-346]
IC50 ([1]; read-out: Anti-rabies activity): < 5 µM | Anti-cancer cell activity [2, 3]: b (b if greater than 10 µM and less than or equal to 20 µM)

Cc1cccc(CNC(=O)[C@]23NC[C@@H]4C[C@H]2CN(CC(C)C)[C@H]3[C@@H]4CCCc2ccccc2)c1 (relative stereo) [IB-933]
IC50 ([1]; read-out: Anti-rabies activity): < 5 µM | Anti-cancer cell activity ([2]; compounds of formula XXIB): b (b if greater than 10 µM and less than or equal to 20 µM)

CC(C)CN1CC2CC3(C(=O)NCc4cccc(F)c4)NCC2C1C3CCCCc1ccccc1 (stereo not shown) [IF-896]
IC50 ([1]; read-out: Anti-rabies activity): < 5 µM | Anti-cancer cell activity ([2]; compounds of formula XXIF): b (b if greater than 10 µM and less than or equal to 20 µM)

Cc1cccc(CNC(=O)[C@]23NC[C@@H]4C[C@H]2CN(CC(C)C)[C@H]3[C@@H]4CCCCc2ccccc2)c1 (relative stereo) [IB-937]
IC50 ([1]; read-out: Anti-rabies activity): < 5 µM | Anti-cancer cell activity ([2]; compounds of formula XXIB): c (c if greater than 20 µM and less than or equal to 40 µM)

Cc1ccc(CNC(=O)C23N=CC4CC2CN(CC(C)C)C3C4CCc2ccccc2)cc1 (stereo not shown) [IIB-334]
IC50 ([1]; read-out: Anti-rabies activity): < 5 µM | Anti-cancer cell activity [2, 3]: c (c if greater than 20 µM and less than or equal to 40 µM)

Cc1cccc(CNC(=O)C23N=CC4CC2CN(CC(C)C)C3C4CCCc2ccccc2)c1 (stereo not shown) [IIB-340]
IC50 ([1]; read-out: Anti-rabies activity): < 5 µM | Anti-cancer cell activity [2, 3]: c (c if greater than 20 µM and less than or equal to 40 µM)

CC(C)CN1CC2CC3C=NC2(C(=O)NCc2cccc(Cl)c2)C1C3CCCc1ccccc1 (stereo not shown) [IIB-337]
IC50 ([1]; read-out: Anti-rabies activity): < 5 µM | Anti-cancer cell activity [2, 3]: c (c if greater than 20 µM and less than or equal to 40 µM)

CC(C)CN1C[C@@H]2C[C@H]3CN[C@]2(C(=O)NCc2cccc(F)c2)[C@@H]1[C@@H]3CCCc1ccccc1 (relative stereo) [IB-932]
IC50 ([1]; read-out: Anti-rabies activity): < 5 µM | Anti-cancer cell activity ([2]; compounds of formula XXIB): c (c if greater than 20 µM and less than or equal to 40 µM)

Cc1cccc(CNC(=O)C23CC4CN(CC(C)C)C(C4CN2)C3CCCCc2ccccc2)c1 (stereo not shown) [IF-897]
IC50 ([1]; read-out: Anti-rabies activity): < 5 µM | Anti-cancer cell activity ([2]; compounds of formula XXIF): b (b if greater than 10 µM and less than or equal to 20 µM)

CC(C)CN1C[C@@H]2C[C@H]3CN[C@]2(C(=O)NCc2cccc(F)c2)[C@@H]1[C@@H]3CCCCc1ccccc1 (relative stereo) [IB-936]
IC50 ([1]; read-out: Anti-rabies activity): < 5 µM | Anti-cancer cell activity ([2]; compounds of formula XXIB): b (b if greater than 10 µM and less than or equal to 20 µM)

COc1cccc(CNC(=O)C23N=CC4CC2CN(CC(C)C)C3C4CCCCc2ccccc2)c1 (stereo not shown) [IIB-345]
IC50 ([1]; read-out: Anti-rabies activity): < 5 µM | Anti-cancer cell activity [2, 3]: c (c if greater than 20 µM and less than or equal to 40 µM)

CC(C)CN1CC2CC3C=NC2(C(=O)NCc2ccccc2)C1C3CCCc1ccccc1 (stereo not shown) [IIB-336]
IC50 ([1]; read-out: Anti-rabies activity): < 5 µM | Anti-cancer cell activity [2, 3]: c (c if greater than 20 µM and less than or equal to 40 µM)

COc1cccc(CNC(=O)C23N=CC4CC2CN(CC(C)C)C3C4CCCc2ccccc2)c1 (stereo not shown) [IIB-341]
IC50 ([1]; read-out: Anti-rabies activity): < 5 µM | Anti-cancer cell activity [2, 3]: c (c if greater than 20 µM and less than or equal to 40 µM)

CC(C)CN1C[C@@H]2C[C@H]3CN[C@]2(C(=O)NCc2ccc(Cl)cc2)[C@@H]1[C@@H]3CCc1ccccc1 (relative stereo) [IB-925]
IC50 ([1]; read-out: Anti-rabies activity): < 5 µM | Anti-cancer cell activity ([2]; compounds of formula XXIB): c (c if greater than 20 µM and less than or equal to 40 µM)

CC(C)CN1CC2CC3C=NC2(C(=O)NCc2cccc(Cl)c2)C1C3CCCCc1ccccc1 (stereo not shown) [IIB-342]
IC50 ([1]; read-out: Anti-rabies activity): 5 to 10 µM | Anti-cancer cell activity [2, 3]: b (b if greater than 10 µM and less than or equal to 20 µM)

CC(C)CN1C[C@@H]2C[C@H]3CN[C@]2(C(=O)NCc2ccccc2)[C@@H]1[C@@H]3CCCc1ccccc1 (relative stereo) [IB-930]
IC50 ([1]; read-out: Anti-rabies activity): < 5 µM | Anti-cancer cell activity ([2]; compounds of formula XXIB): c (c if greater than 20 µM and less than or equal to 40 µM)

CC(C)CCN1CC2CC3C=NC2(C(=O)NCc2cccc(F)c2)C1C3CCCc1ccccc1 (stereo not shown) [IIB-347]
IC50 ([1]; read-out: Anti-rabies activity): < 5 µM | Anti-cancer cell activity [2, 3]: c (c if greater than 20 µM and less than or equal to 40 µM)

CC(C)CCN1C[C@@H]2C[C@H]3CN[C@]2(C(=O)NCc2cccc(F)c2)[C@@H]1[C@@H]3CCCc1ccccc1 (relative stereo) [IB-940]
IC50 ([1]; read-out: Anti-rabies activity): < 5 µM | Anti-cancer cell activity ([2]; compounds of formula XXIB): c (c if greater than 20 µM and less than or equal to 40 µM)

CC(C)CCN1C[C@H]2C[C@]3(C(=O)NCc4ccc(Cl)cc4)N=C[C@H]2[C@H]1[C@H]3Cc1ccccc1 (relative stereo) [IIF-326]
IC50 ([1]; read-out: Anti-rabies activity): < 5 µM | Anti-cancer cell activity [2, 4]: b (b if greater than 10 µM and less than or equal to 20 µM)

CC(C)CN1C[C@H]2C[C@]3(C(=O)NCc4cccc(Cl)c4)N=C[C@H]2[C@H]1[C@H]3CCc1ccccc1 (relative stereo) [IIF-331]
IC50 ([1]; read-out: Anti-rabies activity): < 5 µM | Anti-cancer cell activity [2, 4]: c (c if greater than 20 µM and less than or equal to 40 µM)

CC(C)CN1CC2CC3(C(=O)NCc4cccc(Cl)c4)NCC2C1C3CCCCc1ccccc1 (stereo not shown) [IF-895]
IC50 ([1]; read-out: Anti-rabies activity): < 5 µM | Anti-cancer cell activity ([2]; compounds of formula XXIF): b (b if greater than 10 µM and less than or equal to 20 µM)

CC(C)CCN1CC2CC3(C(=O)NCc4cccc(F)c4)NCC2C1C3CCCc1ccccc1 (stereo not shown) [IF-900]
IC50 ([1]; read-out: Anti-rabies activity): < 5 µM | Anti-cancer cell activity ([2]; compounds of formula XXIF): c (c if greater than 20 µM and less than or equal to 40 µM)

CC(C)CN1CC2CC3C=NC2(C(=O)NCc2cccc(F)c2)C1C3CCCc1ccccc1 (stereo not shown) [IIB-338]
IC50 ([1]; read-out: Anti-rabies activity): < 5 µM | Anti-cancer cell activity [2, 3]: c (c if greater than 20 µM and less than or equal to 40 µM)

NC(=O)c1nc(F)c[nH]c1=O [Compound T-705, Favipiravir]
prophylactic effect (rabies virus): significant prophylactic effect was confirmed and not | IC50 ([1]; read-out: IC50): 30 µM

CC(C)CN1C[C@@H]2C[C@H]3CN[C@]2(C(=O)NCc2cccc(Cl)c2)[C@@H]1[C@@H]3CCc1ccccc1 (relative stereo) [IB-926]
IC50 ([1]; read-out: Anti-rabies activity): < 5 µM | Anti-cancer cell activity ([2]; compounds of formula XXIB): b (b if greater than 10 µM and less than or equal to 20 µM)

CC(C)CN1C[C@H]2C[C@]3(C(=O)NCc4ccc(Cl)cc4)N=C[C@H]2[C@H]1[C@H]3CCc1ccccc1 (relative stereo) [IIF-330]
IC50 ([1]; read-out: Anti-rabies activity): < 5 µM | Anti-cancer cell activity [2, 4]: c (c if greater than 20 µM and less than or equal to 40 µM)

CC(C)CN1CC2CC3C=NC2(C(=O)NCc2ccc(Cl)cc2)C1C3CCc1ccccc1 (stereo not shown) [IIB-331]
IC50 ([1]; read-out: Anti-rabies activity): < 5 µM | Anti-cancer cell activity [2, 3]: c (c if greater than 20 µM and less than or equal to 40 µM)

COc1cccc(CNC(=O)C23CC4CN(CC(C)C)C(C4CN2)C3CCCc2ccccc2)c1 (stereo not shown) [IF-894]
IC50 ([1]; read-out: Anti-rabies activity): < 5 µM | Anti-cancer cell activity ([2]; compounds of formula XXIF): c (c if greater than 20 µM and less than or equal to 40 µM)

CC(C)CN1C[C@@H]2C[C@H]3CN[C@]2(C(=O)NCc2ccc4ccccc4c2)[C@@H]1[C@@H]3CCc1ccccc1 (relative stereo) [IB-929]
IC50 ([1]; read-out: Anti-rabies activity): < 5 µM | Anti-cancer cell activity ([2]; compounds of formula XXIB): b (b if greater than 10 µM and less than or equal to 20 µM)

CC(C)CN1CC2CC3C=NC2(C(=O)NCc2cccc(F)c2)C1C3CCCCc1ccccc1 (stereo not shown) [IIB-343]
IC50 ([1]; read-out: Anti-rabies activity): < 5 µM | Anti-cancer cell activity [2, 3]: c (c if greater than 20 µM and less than or equal to 40 µM)

CC(C)CN1CC2CC3C=NC2(C(=O)NCc2ccc4ccccc4c2)C1C3CCc1ccccc1 (stereo not shown) [IIB-335]
IC50 ([1]; read-out: Anti-rabies activity): < 5 µM | Anti-cancer cell activity [2, 3]: c (c if greater than 20 µM and less than or equal to 40 µM)

CC(C)CN1C[C@@H]2C[C@H]3CN[C@]2(C(=O)NCc2ccccc2)[C@@H]1[C@@H]3CCCCc1ccccc1 (relative stereo) [IB-939]
IC50 ([1]; read-out: Anti-rabies activity): < 5 µM | Anti-cancer cell activity ([2]; compounds of formula XXIB): c (c if greater than 20 µM and less than or equal to 40 µM)

CC(C)CN1C[C@H]2C[C@]3(C(=O)NCc4cccc5ccccc45)NC[C@H]2[C@H]1[C@H]3Cc1cccc2ccccc12 (relative stereo) [IF-778]
IC50 ([1]; read-out: Anti-rabies activity): < 5 µM
